This experiment concerns the target T1, P2X1 receptor (Rattus norvegicus, UniProt P47824).
T1 sequence (P47824 1-399): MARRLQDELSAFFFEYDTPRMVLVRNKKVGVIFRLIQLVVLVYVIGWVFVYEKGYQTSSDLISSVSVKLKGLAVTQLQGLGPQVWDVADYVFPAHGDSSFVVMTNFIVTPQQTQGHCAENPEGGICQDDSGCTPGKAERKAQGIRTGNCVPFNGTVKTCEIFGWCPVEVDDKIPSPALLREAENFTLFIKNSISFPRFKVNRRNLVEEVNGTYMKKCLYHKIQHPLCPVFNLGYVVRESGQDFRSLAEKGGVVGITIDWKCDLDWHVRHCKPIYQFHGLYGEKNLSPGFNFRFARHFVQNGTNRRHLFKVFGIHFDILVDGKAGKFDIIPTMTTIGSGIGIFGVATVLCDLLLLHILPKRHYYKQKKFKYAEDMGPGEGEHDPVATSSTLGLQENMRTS
As to the kind of experiment: two-electrode voltage clamp in Xenopus oocytes. Type of experiment: cell-based. (In general: Two-electrode voltage clamp is typically applied to oocytes expressing channels or transporters.)

As usually defined, the EC50 is the concentration giving half of the maximal effect. Low values mean a more potent agent, high ones a less potent agent. With `Nc1ncnc2c1ncn2[C@@H]1O[C@H](COP(=O)(O)OP(=O)(O)OP(=O)(O)O)[C@@H](O)[C@H]1O` [ATP], it took 700 ± 60 nM to reach a half-maximal effect (EC50).

The values are drawn from PMC2217384 (The Journal of General Physiology, 2003).
